Data as given in patent publication US20260374739A1, “SMALL MOLECULAR WEIGHT CHEMICAL COMPOUND TO ANTAGONIZE EPH-EPHRIN TETRAMERIZATION AND INHIBIT BIDIRECTIONAL SIGNALING” (THE BOARD OF REGENTS OF THE UNIVERSITY OF TEXAS SYSTEM, priority 2022, published 2026).
Where “and” joins values, the source holds several entries; their conditions need not be identical. Equal values may be shown once. Where a name gives a salt, the structure may show the parent alone. Marks after values point to notes of the source that are not given here.

What was measured:
EphrinB2-EphB2 = target: T1, EphrinB2-EphB2 (Homo sapiens, UniProt P29323); assay: Octet 80 sec association/500 sec dissociation, immobilized human EphrinB2-Fc binding to soluble human EphB2-His; settings: for % Inhibition: Association + Dissociation (160 sec) / % Inhibition: Association ONLY (80 sec): EphB2, 25 nM EphB2, 3.2 μM compound, A20-I as max control, 0* = less than 0, no inhibition; for EphB2 Inhibition Percent, Inhibition of Association ONLY: at 3.2 μM and 80 seconds; for EphB2 Inhibition Percent, Inhibition of Association ONLY / EphB2 Inhibition Percent, Inhibition of Association-Dissociation: immobilized human EphrinB2, 25 nM soluble human EphB2; for EphB2 Inhibition Percent, Inhibition of Association-Dissociation: at 3.2 μM and 580 seconds
T1 construct: soluble human EphB1-His, EphB2-His, and EphB4-His ectodomains; commercially available human EphrinB1-Fc (EB1), EphrinB2-Fc (EB2), and EphrinB3-Fc (EB3) ectodomain proteins; purchased
T1 sequence (P29323 19-543 limits assumed): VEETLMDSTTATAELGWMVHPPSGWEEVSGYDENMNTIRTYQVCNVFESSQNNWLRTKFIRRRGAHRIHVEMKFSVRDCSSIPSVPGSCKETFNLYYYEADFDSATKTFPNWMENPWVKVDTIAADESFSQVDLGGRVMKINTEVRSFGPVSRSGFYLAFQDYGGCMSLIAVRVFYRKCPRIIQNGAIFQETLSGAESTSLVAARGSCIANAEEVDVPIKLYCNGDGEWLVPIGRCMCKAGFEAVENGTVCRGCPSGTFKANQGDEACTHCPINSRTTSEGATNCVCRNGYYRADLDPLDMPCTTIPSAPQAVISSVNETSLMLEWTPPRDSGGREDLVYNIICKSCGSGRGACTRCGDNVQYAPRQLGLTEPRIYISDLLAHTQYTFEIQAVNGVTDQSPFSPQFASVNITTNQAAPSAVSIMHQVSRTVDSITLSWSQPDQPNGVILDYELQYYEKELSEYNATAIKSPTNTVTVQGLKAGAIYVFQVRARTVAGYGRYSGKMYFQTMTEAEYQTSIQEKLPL
Protocol: (§1) In another experiment, whether certain A20 analogs might have specificity for different Eph receptors was tested. An Octet RED384 system was used to obtain biophysical ON-OFF binding data (association-dissociation) for the three different human EphrinB2-EphB1, EphrinB2-EphB2, and EphrinB2-EphB4 protein-protein interactions and to assess the effect of A20 chemicals on the binding kinetics.
(§2) FIGS. 72A-72C show three example Octet sensorgram response traces for the immobilized human EphrinB2 ectodomain protein binding to soluble forms of the human EphB1, EphB2, and EphB4 ectodomain proteins, in the absence or presence of an A20 chemical (buffer conditions are always PBSTD:PBS with 0.05% Tween-20, 1% DMSO, and +/− indicated chemical). After loading EphrinB2-Fc protein to Octet AHC biosensors, washing, and obtaining stable baseline measurements in the appropriate PBSTD (either with or without indicated chemical), the sensors are placed in its buffer that also contains the indicated soluble EphB protein for the association step (0-80″), and then returned to its buffer for the dissociation step (81″-580″). In each figure (FIGS. 72A-72C), a sensorgram run using 10 μM of the 2×HCl salt form of A20-I is compared to the no compound control run to exemplify the maximum level of reduced response signal typically obtained with a potent A20 chemical.
(§3) Because the response levels during the dissociation step plateau for the EphrinB2-EphB2 and EphrinB2-EphB1 interactions by the first 80″, AUCs were also calculated for run data encompassing the first 160″ of each experiment to account for both the 80″ association data (red asterisks) and the first 80″ of dissociation data (marked by green line and asterisks).
(§4) The selectivity of another A20 analog (a 3×HCL salt form of compound BQPB4) in comparison to previously tested compound, A20-1, was tested as described in Example 27 above.
(§5) Further to the experiments listed above, a series of dose-response experiments were conducted to determine the IC50 of a selected A20 chemical (A20-1) on the kinetics of human EphrinB2 ligand ectodomain protein binding to its cognate human EphB1, EphB2, and EphB4 receptor ectodomain proteins. FIG. 74A-74C are representative sensorgrams showing the effect of 0, 0.1, 0.2, 0.4, 0.8, 1.6, and 3.2 μM, concentrations of the 2×HCl salt of A20-I along with a 10 μM max standard (also A20-1) on three different Ephrin-EphB interactions (e.g., EphB1 in FIG. 74A, EphB2 in FIG. 74B and EphB4 in FIG. 74C). […] Additional IC50 values were determined at specific timepoints, at 75″ into the association step and at 55″ into the dissociation step (135″).
(§6) All absolute and relative IC50 values are provided in the Table 6 below, where absolute are based off the full binding sensorgram traces, and relative are based off of the max control traces.
(§7) In another experiment, the % inhibition for various A20 analog chemicals against the three different EphrinB2-EphB protein interactions was determined. Specifically, the percent inhibition for immobilized human EphrinB2-Fc binding to 25 nM soluble human EphB1-His (FIG. 76A, enlarged in FIG. 76D), EphB2-His (FIG. 76B, enlarged in FIG. 76E), and EphB4-His (FIG. 76C, enlarged in FIG. 76F) with 3511-I, 8009-9255, QTM-Br, A19, A19-NO2, and IM (all at 3.2 μM) was determined.

EphrinB2-EphB1 = target: T2, EphrinB2-EphB1 (Homo sapiens, UniProt P54762); assay: Octet 80 sec association/500 sec dissociation, immobilized human EphrinB2-Fc binding to soluble human EphB1-His; settings: for EphB1 Inhibition Percent, Inhibition of Association ONLY: at 3.2 μM and 80 seconds; for EphB1 Inhibition Percent, Inhibition of Association ONLY / EphB1 Inhibition Percent, Inhibition of Association-Dissociation: immobilized human EphrinB2, 25 nM soluble human EphB1; for EphB1 Inhibition Percent, Inhibition of Association-Dissociation: at 3.2 μM and 580 seconds
T2 construct: soluble human EphB1-His, EphB2-His, and EphB4-His ectodomains; commercially available human EphrinB1-Fc (EB1), EphrinB2-Fc (EB2), and EphrinB3-Fc (EB3) ectodomain proteins; purchased
T2 sequence (P54762 18-540 limits assumed): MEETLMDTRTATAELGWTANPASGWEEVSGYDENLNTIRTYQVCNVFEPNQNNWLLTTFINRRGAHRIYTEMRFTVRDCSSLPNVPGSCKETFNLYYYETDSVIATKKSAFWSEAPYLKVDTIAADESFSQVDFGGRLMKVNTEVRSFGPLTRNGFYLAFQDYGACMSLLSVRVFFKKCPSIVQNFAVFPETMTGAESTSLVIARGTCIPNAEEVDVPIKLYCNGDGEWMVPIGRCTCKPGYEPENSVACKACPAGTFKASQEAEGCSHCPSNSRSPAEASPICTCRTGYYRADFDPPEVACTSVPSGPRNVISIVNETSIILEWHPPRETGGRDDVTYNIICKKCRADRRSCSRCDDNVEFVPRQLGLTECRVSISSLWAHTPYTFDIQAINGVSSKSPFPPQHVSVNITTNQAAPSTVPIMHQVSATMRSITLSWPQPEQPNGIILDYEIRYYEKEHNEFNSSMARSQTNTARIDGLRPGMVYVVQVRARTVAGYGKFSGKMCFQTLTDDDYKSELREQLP
Protocol: as §1, §2, §3, §4, §5, §6, §7

EphrinB2-EphB4 = target: T3, EphrinB2-EphB4 (Homo sapiens, UniProt P54760); assay: Octet 80 sec association/500 sec dissociation, immobilized human EphrinB2-Fc binding to soluble human EphB4-His; settings: for EphB4 Inhibition Percent, Inhibition of Association ONLY: at 3.2 μM and 80 seconds; for EphB4 Inhibition Percent, Inhibition of Association ONLY / EphB4 Inhibition Percent, Inhibition of Association-Dissociation: immobilized human EphrinB2, 25 nM soluble human EphB4; for EphB4 Inhibition Percent, Inhibition of Association-Dissociation: at 3.2 μM and 580 seconds
T3 construct: soluble human EphB1-His, EphB2-His, and EphB4-His ectodomains; commercially available human EphrinB1-Fc (EB1), EphrinB2-Fc (EB2), and EphrinB3-Fc (EB3) ectodomain proteins; purchased
T3 sequence (P54760 16-539 limits assumed): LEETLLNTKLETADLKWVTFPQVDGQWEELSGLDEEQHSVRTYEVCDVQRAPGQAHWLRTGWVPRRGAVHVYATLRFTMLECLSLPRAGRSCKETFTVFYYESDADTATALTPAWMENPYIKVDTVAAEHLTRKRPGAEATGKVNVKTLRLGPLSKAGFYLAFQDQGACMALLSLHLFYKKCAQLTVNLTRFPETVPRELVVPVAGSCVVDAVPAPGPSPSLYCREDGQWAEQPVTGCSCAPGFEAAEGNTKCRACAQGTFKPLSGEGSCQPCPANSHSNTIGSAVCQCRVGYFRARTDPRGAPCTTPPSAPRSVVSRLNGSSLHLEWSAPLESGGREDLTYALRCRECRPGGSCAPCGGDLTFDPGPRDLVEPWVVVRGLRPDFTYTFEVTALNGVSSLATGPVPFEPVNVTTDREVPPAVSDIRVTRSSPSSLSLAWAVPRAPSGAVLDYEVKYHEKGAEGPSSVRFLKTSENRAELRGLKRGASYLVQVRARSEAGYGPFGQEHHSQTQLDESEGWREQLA
Protocol: as §1, §2, §3, §4, §5, §6, §7

[1] = EphB1, 25 nM EphB1, 3.2 μM compound, A20-I as max control, 0* = less than 0, no inhibition
[2] = EphB4, 25 nM EphB4, 3.2 μM compound, A20-I as max control, 0* = less than 0, no inhibition
[3] = listed as A20-1.2xMSA, methanesulfonate

Row | EphB1 Inhibition Percent, Inhibition of Association ONLY (EphrinB2-EphB1) | Structure (SMILES) | EphB2 Inhibition Percent, Inhibition of Association ONLY (EphrinB2-EphB2) | EphB2 Inhibition Percent, Inhibition of Association-Dissociation (EphrinB2-EphB2) | EphB1 Inhibition Percent, Inhibition of Association-Dissociation (EphrinB2-EphB1) | EphB4 Inhibition Percent, Inhibition of Association ONLY (EphrinB2-EphB4) | EphB4 Inhibition Percent, Inhibition of Association-Dissociation (EphrinB2-EphB4) | also measured
1 | 39.6% | COc1ccccc1N1CCN(Cc2cc(I)c(O)c3ncccc23)CC1 [Compound 71-A, 7-iodo-5-((4-(2-methoxyphenyl)piperazin-1-yl)methyl)quinolin-8-ol dihydrochloride] | 58.7% | 73.2% | 52.3% | 17.5% | 35.6% | 
2 | 21.4% | Oc1ccc(CN2CCN(C3CCCC3)CC2)c2cccnc12 [Compound 83, 5-((4-cyclopentylpiperazin-1-yl)methyl)quinolin-8-ol] | 20.9% | 21.2% | 23.6% | 0.5% | 0.5% | 
3 |  | Oc1ccc(CN2CCN(Cc3ccc(C(F)(F)F)cc3)CC2)c2cccnc12 [Compound 49, 8-hydroxy-5-((4-(4-(trifluoromethyl)benzyl)piperazin-1-ium-1-yl)methyl)quinolin-1-ium chloride] | 21.3% and 24.9% | 46.2% and 36.2% | 19.8% and 39.0% | 0*/0*% | 0% and 2.8% | 
4 |  | Oc1c(I)cc(CN2CCOCC2)c2cccnc12 [Compound 89, 4-((8-hydroxy-7-iodoquinolin-1-ium-5-yl)methyl)morpholin-4-ium methanesulfonate] |  |  |  |  |  | % Inhibition: Association + Dissociation (160 sec) (EphrinB2-EphB2; [3]): 74.6%; % Inhibition: Association ONLY (80 sec) (EphrinB2-EphB2; [3]): 55.1%; EphB2 Inhibition Percent, Inhibition of Association ONLY (EphrinB2-EphB2; methanesulfonate): 55.1%; EphB2 Inhibition Percent, Inhibition of Association-Dissociation (EphrinB2-EphB2; methanesulfonate): 74.6%; % Inhibition: Association + Dissociation (160 sec) (EphrinB2-EphB1; EphB1, 25 nM EphB1, 3.2 μM compound, A20-I as max control, 0* = less than 0, no inhibition, listed as A20-1.2xMSA, methanesulfonate): 46.3%; EphB1 Inhibition Percent, Inhibition of Association ONLY (EphrinB2-EphB1; methanesulfonate): 28.4%; EphB1 Inhibition Percent, Inhibition of Association-Dissociation (EphrinB2-EphB1; methanesulfonate): 46.3%; EphB4 Inhibition Percent, Inhibition of Association ONLY (EphrinB2-EphB4; methanesulfonate): 1.7%; EphB4 Inhibition Percent, Inhibition of Association-Dissociation (EphrinB2-EphB4; methanesulfonate): 25.4%

Row | Structure (SMILES) | EphB1 Inhibition Percent, Inhibition of Association ONLY (EphrinB2-EphB1) | EphB2 Inhibition Percent, Inhibition of Association ONLY (EphrinB2-EphB2) | EphB2 Inhibition Percent, Inhibition of Association-Dissociation (EphrinB2-EphB2) | EphB1 Inhibition Percent, Inhibition of Association-Dissociation (EphrinB2-EphB1) | EphB4 Inhibition Percent, Inhibition of Association ONLY (EphrinB2-EphB4) | EphB4 Inhibition Percent, Inhibition of Association-Dissociation (EphrinB2-EphB4) | also measured
5 | Oc1cccc2cccnc12 [Compound 102, 8-Hydroxyquinoline, reference compound] | 0*% | 0*% | 0*% | 0*% | 0*% | 0*% | inhibition of EphrinB2-EphB interactions (EphrinB2-EphB2; 3.2 μM, EphB1, EphB2 and EphB4): unable to disrupt any of the EphrinB2-EphB interactions; % Inhibition: Association + Dissociation (160 sec) (EphrinB2-EphB2): 0* %; % Inhibition: Association ONLY (80 sec) (EphrinB2-EphB2): 0* %; % Inhibition: Association + Dissociation (160 sec) (EphrinB2-EphB1; [1]): 0* %; % Inhibition: Association ONLY (80 sec) (EphrinB2-EphB1; [1]): 0* %; % Inhibition: Association + Dissociation (160 sec) (EphrinB2-EphB4; [2]): 0* %; % Inhibition: Association ONLY (80 sec) (EphrinB2-EphB4; [2]): 0* %
